The results in this text go back to ChEMBL document CHEMBL1154997, “Inhibitors of dipeptidyl peptidase 8 and dipeptidyl peptidase 9. Part 1: identification of dipeptide derived leads” (Bioorg Med Chem Lett, 2008).

Targets include Dipeptidyl peptidase 4 (Homo sapiens, UniProt P27487); Dipeptidyl peptidase 2 (Homo sapiens, UniProt Q9UHL4); Dipeptidyl peptidase 8 (Homo sapiens, UniProt Q6V1X1); Dipeptidyl peptidase 9 (Homo sapiens, UniProt Q86TI2).

Each structure is given as a SMILES string.

Sequence of Dipeptidyl peptidase 8 (Q6V1X1 whole entry): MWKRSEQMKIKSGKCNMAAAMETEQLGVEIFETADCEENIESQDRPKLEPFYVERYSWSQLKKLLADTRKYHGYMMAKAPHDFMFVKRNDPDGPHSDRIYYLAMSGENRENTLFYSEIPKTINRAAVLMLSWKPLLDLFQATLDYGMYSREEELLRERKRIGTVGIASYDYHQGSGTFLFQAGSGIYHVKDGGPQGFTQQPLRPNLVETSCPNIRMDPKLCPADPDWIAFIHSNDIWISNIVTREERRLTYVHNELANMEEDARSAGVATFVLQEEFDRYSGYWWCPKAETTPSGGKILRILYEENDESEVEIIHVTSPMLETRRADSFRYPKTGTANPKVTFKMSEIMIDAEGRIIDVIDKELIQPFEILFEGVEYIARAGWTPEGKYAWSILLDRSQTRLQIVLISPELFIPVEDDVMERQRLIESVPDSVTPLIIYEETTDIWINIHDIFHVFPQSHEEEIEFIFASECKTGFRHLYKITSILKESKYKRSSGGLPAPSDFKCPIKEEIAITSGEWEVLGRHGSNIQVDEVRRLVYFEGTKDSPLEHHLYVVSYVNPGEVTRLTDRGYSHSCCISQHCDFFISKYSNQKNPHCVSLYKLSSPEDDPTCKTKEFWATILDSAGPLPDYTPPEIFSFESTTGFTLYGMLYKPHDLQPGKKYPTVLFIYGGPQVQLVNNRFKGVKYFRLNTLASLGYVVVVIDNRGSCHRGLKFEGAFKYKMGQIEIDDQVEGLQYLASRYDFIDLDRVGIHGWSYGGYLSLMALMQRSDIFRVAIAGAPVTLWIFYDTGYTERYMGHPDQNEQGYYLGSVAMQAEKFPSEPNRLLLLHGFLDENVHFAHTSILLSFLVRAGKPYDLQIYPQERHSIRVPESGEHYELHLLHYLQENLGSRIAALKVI
Sequence of Dipeptidyl peptidase 9 (Q86TI2 whole entry): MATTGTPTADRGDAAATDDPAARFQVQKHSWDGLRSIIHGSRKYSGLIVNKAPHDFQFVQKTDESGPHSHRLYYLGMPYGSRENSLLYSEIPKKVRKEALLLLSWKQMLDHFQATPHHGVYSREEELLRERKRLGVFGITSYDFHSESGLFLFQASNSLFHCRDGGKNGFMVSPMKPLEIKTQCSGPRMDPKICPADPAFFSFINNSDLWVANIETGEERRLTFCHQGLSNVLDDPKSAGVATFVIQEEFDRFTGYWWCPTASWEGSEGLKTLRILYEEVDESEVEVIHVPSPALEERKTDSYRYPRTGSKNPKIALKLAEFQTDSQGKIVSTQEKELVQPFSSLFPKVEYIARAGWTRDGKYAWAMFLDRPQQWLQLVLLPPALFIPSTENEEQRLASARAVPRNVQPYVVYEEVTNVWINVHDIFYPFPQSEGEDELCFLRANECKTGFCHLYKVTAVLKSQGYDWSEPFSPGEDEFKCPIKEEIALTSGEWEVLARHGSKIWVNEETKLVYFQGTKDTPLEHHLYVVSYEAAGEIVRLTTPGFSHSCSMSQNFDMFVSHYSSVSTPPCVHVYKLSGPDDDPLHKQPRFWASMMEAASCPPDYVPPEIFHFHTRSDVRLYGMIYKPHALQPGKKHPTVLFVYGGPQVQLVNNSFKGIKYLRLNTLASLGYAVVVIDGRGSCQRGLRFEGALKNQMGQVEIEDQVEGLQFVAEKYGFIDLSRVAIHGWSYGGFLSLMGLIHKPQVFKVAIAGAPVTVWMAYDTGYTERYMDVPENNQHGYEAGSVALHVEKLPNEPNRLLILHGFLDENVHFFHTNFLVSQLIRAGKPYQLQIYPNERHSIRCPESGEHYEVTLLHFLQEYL
Sequence of Dipeptidyl peptidase 4 (P27487 whole entry): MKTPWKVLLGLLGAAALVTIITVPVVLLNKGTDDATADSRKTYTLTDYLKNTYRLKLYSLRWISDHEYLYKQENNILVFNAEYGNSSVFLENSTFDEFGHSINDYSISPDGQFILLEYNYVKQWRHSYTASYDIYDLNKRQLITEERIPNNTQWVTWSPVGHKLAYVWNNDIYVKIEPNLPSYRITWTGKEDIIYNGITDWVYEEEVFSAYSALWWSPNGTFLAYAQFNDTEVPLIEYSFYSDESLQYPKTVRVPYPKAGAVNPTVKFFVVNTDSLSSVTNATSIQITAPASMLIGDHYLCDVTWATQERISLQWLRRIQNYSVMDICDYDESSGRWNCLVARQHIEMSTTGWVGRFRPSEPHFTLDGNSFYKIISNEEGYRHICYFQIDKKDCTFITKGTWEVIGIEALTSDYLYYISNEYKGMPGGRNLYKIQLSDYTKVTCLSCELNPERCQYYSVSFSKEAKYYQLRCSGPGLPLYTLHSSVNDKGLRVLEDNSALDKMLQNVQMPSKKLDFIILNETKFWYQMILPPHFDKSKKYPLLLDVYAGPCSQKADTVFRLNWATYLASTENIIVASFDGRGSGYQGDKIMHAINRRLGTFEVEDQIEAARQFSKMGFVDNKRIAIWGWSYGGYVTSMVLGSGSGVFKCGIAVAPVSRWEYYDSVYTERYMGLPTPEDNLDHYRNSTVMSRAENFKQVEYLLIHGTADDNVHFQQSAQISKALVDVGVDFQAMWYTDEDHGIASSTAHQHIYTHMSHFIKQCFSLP

The IC50 is the point on the concentration scale where inhibition reaches its midpoint. For the molecule `N[C@@H](CS)C(=O)N1CCCC1`, the IC50 on Dipeptidyl peptidase 4 was 37 µM; on Dipeptidyl peptidase 2 it was 19 µM.
Molecule `CC(C)[C@H](N)C(=O)N1CCCC1` gave an IC50 against Dipeptidyl peptidase 2 of 153 µM.
For the molecule `N#C[C@@H]1C[C@H](N=[N+]=[N-])CN1C(=O)[C@@H](N)CCCCNc1ccc2ccccc2c1`, the IC50 on Dipeptidyl peptidase 4 stood at 0.56 µM; at Dipeptidyl peptidase 2, 0.034 µM.
In turn, `C[C@H](N)C(=O)N1CCCC1` had an IC50 on Dipeptidyl peptidase 8 of 411 µM.
In turn, `N#C[C@@H]1C[C@H](N=[N+]=[N-])CN1C(=O)[C@@H](N)CCCCN(c1ccc2ccccc2c1)c1ccc2ccccc2c1` gave an IC50 against Dipeptidyl peptidase 2 of 0.068 µM.
As to `N#C[C@@H]1CCCN1C(=O)[C@@H](N)CCCCNC(=O)OCc1ccccc1`, the values for the IC50 at Dipeptidyl peptidase 4 and at Dipeptidyl peptidase 2 were 0.035 µM and 0.84 µM, respectively.
For `NCCCC[C@H](N)C(=O)N1CCSC1`, in that order: 23 µM and 2.9 µM.
For `N=C(NCCC[C@H](NC(=O)OCc1ccccc1)C(=O)N1CCCC1)NC(=O)OCc1ccccc1`, in that order: 16.8 µM and 0.86 µM.
At Dipeptidyl peptidase 8, `N[C@@H](CC(=O)O)C(=O)N1CCCC1` returned an IC50 above 1000 µM.
Regarding `CC[C@H](C)[C@H](N)C(=O)NC1CCCC1`, the IC50 on Dipeptidyl peptidase 4 is above 1000 µM; on Dipeptidyl peptidase 2, above 100 µM; on Dipeptidyl peptidase 8 it was above 1000 µM; against Dipeptidyl peptidase 9, above 100 µM.
On to `N#C[C@@H]1C[C@H](N=[N+]=[N-])CN1C(=O)[C@@H](N)CCCCN`, for which the half-inhibitory concentration (IC50) was 2.2 µM against Dipeptidyl peptidase 4 and 0.31 µM against Dipeptidyl peptidase 2.
For `CC(C)C[C@H](N)C(=O)N1CCCC1`, in that order: 24 µM and 122 µM.
As to `NCCC[C@H](N)C(=O)N1CCCC1`, the values for the IC50 on Dipeptidyl peptidase 4 and on Dipeptidyl peptidase 2 were 118 µM and 9.8 µM, respectively.
On the same counts, the results for `CC[C@H](C)[C@H](N)C(=O)N1CCCCC1` are 67 µM and 59 µM.
Consider `N[C@@H](Cc1c[nH]cn1)C(=O)N1CCCC1`, for which the IC50 against Dipeptidyl peptidase 4 is 23.1 µM; against Dipeptidyl peptidase 2 it was 1.2 µM; against Dipeptidyl peptidase 8 it was above 500 µM; at Dipeptidyl peptidase 9, above 100 µM.
In the case of `N[C@@H](Cc1ccc(O)cc1)C(=O)N1CCCC1`, the IC50 is 43.5 µM on Dipeptidyl peptidase 4 and 15.7 µM at Dipeptidyl peptidase 2.
One may read the Ki as a dissociation constant, usually derived from enzyme kinetics or from competition with a known ligand. A high value points to lower affinity. On Dipeptidyl peptidase 2, `N[C@@H](CCNCc1ccc(Cl)cc1)C(=O)N1CCCCC1` registered an IC50 below 0.0005 µM and a Ki of 0.082 nM. In addition, the IC50 on Dipeptidyl peptidase 9 was found to be 76.6 µM.
Take `N=C(N)NCCC[C@H](N)C(=O)N1CCCC1`: the values for the half-inhibitory concentration (IC50) at Dipeptidyl peptidase 4 and against Dipeptidyl peptidase 2 were 12.7 µM and 3.1 µM, respectively.
With `N[C@@H](CCCCNC(=O)OCc1ccccc1)C(=O)N1CCSC1`, the IC50 on Dipeptidyl peptidase 4 came to 3.7 µM; against Dipeptidyl peptidase 2, 1.02 µM.
As to `N[C@@H](Cc1c[nH]c2ccccc12)C(=O)N1CCCC1`, the IC50 on Dipeptidyl peptidase 4 was 286 µM; on Dipeptidyl peptidase 2, 49 µM; against Dipeptidyl peptidase 8, 242 µM; against Dipeptidyl peptidase 9, above 100 µM.
As to `N#C[C@@H]1CCCCN1C(=O)[C@@H](N)CCCCN`, the IC50 against Dipeptidyl peptidase 4 was found to be 51 µM; against Dipeptidyl peptidase 2 it was 1.5 µM.
For `N#C[C@@H]1C[C@H](N=[N+]=[N-])CN1C(=O)[C@@H](N)CCCCNC(=O)OCc1ccccc1`, in that order: 0.53 µM and 0.35 µM.
For `CC[C@H](C)[C@H](N)C(=O)N1CCC(F)C1` (stereo partly specified), in that order: 3.5 µM and 111 µM.
On the same counts, the results for `N#C[C@@H]1C[C@H](N=[N+]=[N-])CN1C(=O)[C@@H](N)CCCCN(c1cccc2ccccc12)c1cccc2ccccc12` are 2.5 µM and 0.025 µM.
`NCCCC[C@H](N)C(=O)N1CCCC1`: the IC50 at Dipeptidyl peptidase 4 was found to be 39 µM; against Dipeptidyl peptidase 2 it was 9.9 µM.
At Dipeptidyl peptidase 2, `N#C[C@@H]1CCCN1C(=O)[C@@H](N)CCCCN` displayed an IC50 of 0.577 µM. In other words, the sub-micromolar range.
With `CC[C@H](C)[C@H](N)C(=O)N1CCCCCC1`, the 50% inhibitory concentration (IC50) on Dipeptidyl peptidase 4 was 374 µM; on Dipeptidyl peptidase 2 it was 228 µM; on Dipeptidyl peptidase 8, 612 µM; against Dipeptidyl peptidase 9, above 100 µM.
As for `CC(C)[C@H](N)C(=O)N1CSC[C@H]1B(O)O`, on Dipeptidyl peptidase 2, the IC50 was found to be 0.086 µM.
Consider `N[C@@H](Cc1ccccc1)C(=O)N1CCCC1`, for which the values for the IC50 at Dipeptidyl peptidase 4, against Dipeptidyl peptidase 2 and against Dipeptidyl peptidase 8 were 21 µM, 79 µM and 115 µM, respectively.
For the molecule `CC[C@H](C)[C@H](N)C(=O)N1CC=CC1`, the IC50 at Dipeptidyl peptidase 4 stood at 15 µM; against Dipeptidyl peptidase 2, 288 µM.
On to `CC[C@H](C)[C@H](N)C(=O)N1CCC(O)C1` (stereo partly specified), for which the IC50 on Dipeptidyl peptidase 4 is 93 µM; against Dipeptidyl peptidase 2, 299 µM; against Dipeptidyl peptidase 8, 130 µM; on Dipeptidyl peptidase 9, above 100 µM.
For the molecule `N[C@@H](CO)C(=O)N1CCCC1`, the figures for the IC50 against Dipeptidyl peptidase 4, at Dipeptidyl peptidase 2 and against Dipeptidyl peptidase 8 were 190 µM, 65 µM and above 500 µM, respectively.
On the same counts, the results for `NCCCC[C@H](N)C(=O)N1CCC(O)C1` (stereo partly specified) are 500 µM, 48 µM and 139 µM.
As for `CCCC[C@H](N)C(=O)N1CCCC1`, the IC50 against Dipeptidyl peptidase 4 was determined as 15 µM; at Dipeptidyl peptidase 2, 60 µM.
For the molecule `CC[C@H](C)[C@H](N)C(=O)N1CCC1`, the IC50 against Dipeptidyl peptidase 4 is 50.4 µM; against Dipeptidyl peptidase 2, 730 µM; against Dipeptidyl peptidase 8, 127 µM; at Dipeptidyl peptidase 9, above 100 µM.
At Dipeptidyl peptidase 2, `[N-]=[N+]=NC1CCN(C(=O)[C@@H](N)CCCCN)C1` (stereo partly specified) registered a concentration for half-maximal inhibition (IC50) of 4.9 µM.
Regarding `N[C@@H](CCCCNC(=O)OCc1ccccc1)C(=O)N1CCCc2ccccc21`, the half-inhibitory concentration (IC50) is above 1000 µM on Dipeptidyl peptidase 4, 390 µM at Dipeptidyl peptidase 2, above 500 µM against Dipeptidyl peptidase 8 and above 100 µM against Dipeptidyl peptidase 9.
Consider `C[C@@H](O)[C@H](N)C(=O)N1CCCC1`, for which the IC50 against Dipeptidyl peptidase 4 is 98 µM; against Dipeptidyl peptidase 2, 230 µM.
Take `NCC(=O)N1CCCC1`: the IC50 against Dipeptidyl peptidase 8 and against Dipeptidyl peptidase 9 was above 1000 µM in each case.
As to `CC[C@H](C)[C@H](N)C(=O)N1CCC(Cl)C1` (stereo partly specified), the results for the IC50 on Dipeptidyl peptidase 4 and against Dipeptidyl peptidase 2 were 94 µM and 30 µM, respectively.
For `N[C@@H](CCC(=O)O)C(=O)N1CCCC1`, the IC50 on Dipeptidyl peptidase 4 is above 1000 µM; against Dipeptidyl peptidase 2, above 1000 µM; against Dipeptidyl peptidase 8, above 1000 µM; against Dipeptidyl peptidase 9, above 100 µM.
With `NCCCC[C@H](N)C(=O)N1CCCc2ccccc21`, the IC50 at Dipeptidyl peptidase 4 was above 1000 µM; on Dipeptidyl peptidase 2, 393 µM; against Dipeptidyl peptidase 8 it was 312 µM; against Dipeptidyl peptidase 9 it was above 100 µM.
Take `NC(=O)C[C@H](N)C(=O)N1CCCC1`: the IC50 against Dipeptidyl peptidase 4 is 188 µM; at Dipeptidyl peptidase 2, 152 µM; against Dipeptidyl peptidase 8, above 500 µM.
Regarding `N[C@@H](CCCCNC(=O)OCc1ccccc1)C(=O)N1CCCC1`, the half-inhibitory concentration (IC50) came to 15.6 µM against Dipeptidyl peptidase 4 and 5.7 µM against Dipeptidyl peptidase 2.
For `N[C@@H](CCCNC(=O)OCc1ccccc1)C(=O)N1CCCC1`, in that order: 9.7 µM and 3.7 µM.
`CC[C@H](C)[C@H](N)C(=O)N1CCC(N=[N+]=[N-])C1` (stereo partly specified): the IC50 against Dipeptidyl peptidase 4 came out at 107 µM; against Dipeptidyl peptidase 2, 43 µM.
Consider `CC[C@H](C)[C@H](N)C(=O)N1CC=CCC1`, for which the results for the IC50 against Dipeptidyl peptidase 4, on Dipeptidyl peptidase 2 and on Dipeptidyl peptidase 9 were 52 µM, 52 µM and above 50 µM, respectively.
